Measurements from US20260083761A1, “PHARMACEUTICAL COMPOSITION FOR TREATING BRAIN DISEASE, NEURONAL MIGRATION PROMOTER, AND USE THEREOF” (PUBLIC UNIVERSITY CORPORATION NAGOYA CITY UNIVERSITY, priority 2022, published 2026).

How the values were obtained:
[1] = tested on: V-SVZ-derived new neurons co-cultured with BV2 cells; test: Experiment 10: co-culture of V-SVZ-derived new neurons with LPS-stimulated BV2 cells; PSA signal and time-lapse imaging; format: cell-based, mouse; conditions: inhibitor final concentration 1 mM, vs PBS (LPS+) and control (LPS−)
[2] = tested on: V-SVZ-derived neurons; test: Experiment 12: Zanamivir in Nestin-CreERT2;NSE-DTA mice with new neurons removed; FFT and double-positive cells; format: in vivo, mouse; conditions: Nestin-CreERT2;NSE-DTA group, unlike NSE-DTA group; Zanamivir 50 mg/kg i.p. for 14 days from day 7 after injury; FFT 14 days after end of administration
[3] = tested on: new neurons migrating to the brain injury site; test: Experiment 13: Zanamivir in common marmosets with brain injury; PSA-NCAM and Dcx immunostaining; format: in vivo, common marmoset (Callithrix jacchus); conditions: common marmoset, 50 mg/kg i.p. for 21 days from day 7 after injury, fixed 28 days after injury
[4] = target: T1, Neu3 (Homo sapiens, UniProt Q9UQ49); conditions: human neuraminidases; reported; cited from earlier work
T1 sequence (Q9UQ49 1-461 isoform Q9UQ49-2): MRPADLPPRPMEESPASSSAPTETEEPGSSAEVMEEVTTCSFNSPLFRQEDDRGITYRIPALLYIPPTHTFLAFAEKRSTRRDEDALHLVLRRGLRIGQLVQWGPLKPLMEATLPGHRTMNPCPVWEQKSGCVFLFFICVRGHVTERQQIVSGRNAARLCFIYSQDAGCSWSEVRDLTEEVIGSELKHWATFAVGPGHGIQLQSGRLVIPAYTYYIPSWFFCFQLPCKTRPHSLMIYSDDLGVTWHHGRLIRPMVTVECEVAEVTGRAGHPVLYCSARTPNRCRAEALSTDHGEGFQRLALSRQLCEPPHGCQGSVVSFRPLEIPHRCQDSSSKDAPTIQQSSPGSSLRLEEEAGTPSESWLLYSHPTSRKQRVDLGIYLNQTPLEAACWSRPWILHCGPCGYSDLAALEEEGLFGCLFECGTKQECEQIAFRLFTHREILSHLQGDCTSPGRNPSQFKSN

[5] = target: T2, Neu4 (Homo sapiens, UniProt Q8WWR8); conditions: human neuraminidases; reported; cited from earlier work
T2 sequence (Q8WWR8 1-496 isoform Q8WWR8-2): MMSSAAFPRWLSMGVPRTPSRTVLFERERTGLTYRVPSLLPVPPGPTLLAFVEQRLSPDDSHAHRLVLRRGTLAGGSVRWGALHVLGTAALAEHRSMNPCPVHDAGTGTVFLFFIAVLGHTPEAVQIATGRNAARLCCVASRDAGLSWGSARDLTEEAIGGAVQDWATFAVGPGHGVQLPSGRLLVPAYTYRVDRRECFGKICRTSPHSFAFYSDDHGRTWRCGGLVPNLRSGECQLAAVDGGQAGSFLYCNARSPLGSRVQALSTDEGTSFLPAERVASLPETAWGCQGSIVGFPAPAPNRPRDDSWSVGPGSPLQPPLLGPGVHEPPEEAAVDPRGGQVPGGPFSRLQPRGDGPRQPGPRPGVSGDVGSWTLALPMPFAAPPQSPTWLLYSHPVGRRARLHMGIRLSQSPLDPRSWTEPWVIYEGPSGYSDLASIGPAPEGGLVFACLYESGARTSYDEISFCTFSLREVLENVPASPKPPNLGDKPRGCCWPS

Q: For CC(=O)N[C@H]1[C@H]([C@H](O)[C@H](O)CO)OC(C(=O)O)=C[C@@H]1O [DANA, 2,3-dehydro-2-deoxy-N-acetylneuraminic acid], which PSA signal intensity [1] is on record?
A: The PSA signal intensity was “maintained”.

Q: What does the source list for CC(=O)N[C@H]1[C@H]([C@H](O)[C@H](O)CO)OC(C(=O)O)=C[C@@H]1N=C(N)N [Zanamivir]?
A: PSA signal intensity [1]: maintained; left-side slipping-off rate in the FFT [2]: no improvement; localization of new neurons (distance of Dcx-positive cells from the injury site) ([3]; vs control): localized closer to the injury site; PSA signal intensity of new neurons localized in the striatum on the injury side ([3]; vs non-administration control): maintain; inhibitory effect on human Neu3 [4]: inhibitory effect has been reported; inhibitory effect on human Neu4 [5]: inhibitory effect has been reported
